Test results published in US10457677B2 (priority 2015, dated 2019).
Like-named read-outs stand apart in the source and are kept apart here.

Assays:
PI3K p110β/p85α (human) = PI3K p110β/p85α (human) (Homo sapiens (Human), UniProt P42338); assay: PI3K p110β/p85α (human), non-radioactive assay (HTRF); format: biochemical; conditions: read-out: IC50 (PI3Kbeta)
Experimental: PI3K p110β/p85α (Human), Non-radioactive Assay
PI3K p110β/p85α (human) was incubated in an assay buffer comprising 10 μM phosphati-dylinositol 4,5-bisphosphate and MgATP (concentration as necessary). The reaction was initiated by addition of MgATP solution. After an incubation time of 30 min at room temperature, the reaction was stopped by addition of a solution consisting of EDTA and biotinylated phosphatidylinositol 3,4,5-trisphosphate. Finally, the detection buffer, consisting of a europium-labelled anti-GST monoclonal antibody, a GST-labelled GRP1 PH domain and streptavidin allophycocyanin, was added. The plate was read out via homogeneous time-resolved fluorescence (HTRF) and the corresponding signals were evaluated via the formula HTRF=10000×(Em665nm/Em620nm).

PI3K p110α/p85α (human) = PI3K p110α/p85α (human) (Homo sapiens (Human), UniProt P42336); assay: PI3K p110α/p85α (human), non-radioactive assay (HTRF); format: biochemical; conditions: read-out: IC50 (PI3Kalpha)
[1] = target: purified human recombinant ATM (ataxia telangiectasia mutated), full length (Homo sapiens (Human), UniProt Q13315); assay: ATM kinase assay - determination of ATM inhibition (IC50 ATM), TR-FRET; format: biochemical
Chain of purified human recombinant ATM (ataxia telangiectasia mutated), full length (Q13315 whole entry, change not shown): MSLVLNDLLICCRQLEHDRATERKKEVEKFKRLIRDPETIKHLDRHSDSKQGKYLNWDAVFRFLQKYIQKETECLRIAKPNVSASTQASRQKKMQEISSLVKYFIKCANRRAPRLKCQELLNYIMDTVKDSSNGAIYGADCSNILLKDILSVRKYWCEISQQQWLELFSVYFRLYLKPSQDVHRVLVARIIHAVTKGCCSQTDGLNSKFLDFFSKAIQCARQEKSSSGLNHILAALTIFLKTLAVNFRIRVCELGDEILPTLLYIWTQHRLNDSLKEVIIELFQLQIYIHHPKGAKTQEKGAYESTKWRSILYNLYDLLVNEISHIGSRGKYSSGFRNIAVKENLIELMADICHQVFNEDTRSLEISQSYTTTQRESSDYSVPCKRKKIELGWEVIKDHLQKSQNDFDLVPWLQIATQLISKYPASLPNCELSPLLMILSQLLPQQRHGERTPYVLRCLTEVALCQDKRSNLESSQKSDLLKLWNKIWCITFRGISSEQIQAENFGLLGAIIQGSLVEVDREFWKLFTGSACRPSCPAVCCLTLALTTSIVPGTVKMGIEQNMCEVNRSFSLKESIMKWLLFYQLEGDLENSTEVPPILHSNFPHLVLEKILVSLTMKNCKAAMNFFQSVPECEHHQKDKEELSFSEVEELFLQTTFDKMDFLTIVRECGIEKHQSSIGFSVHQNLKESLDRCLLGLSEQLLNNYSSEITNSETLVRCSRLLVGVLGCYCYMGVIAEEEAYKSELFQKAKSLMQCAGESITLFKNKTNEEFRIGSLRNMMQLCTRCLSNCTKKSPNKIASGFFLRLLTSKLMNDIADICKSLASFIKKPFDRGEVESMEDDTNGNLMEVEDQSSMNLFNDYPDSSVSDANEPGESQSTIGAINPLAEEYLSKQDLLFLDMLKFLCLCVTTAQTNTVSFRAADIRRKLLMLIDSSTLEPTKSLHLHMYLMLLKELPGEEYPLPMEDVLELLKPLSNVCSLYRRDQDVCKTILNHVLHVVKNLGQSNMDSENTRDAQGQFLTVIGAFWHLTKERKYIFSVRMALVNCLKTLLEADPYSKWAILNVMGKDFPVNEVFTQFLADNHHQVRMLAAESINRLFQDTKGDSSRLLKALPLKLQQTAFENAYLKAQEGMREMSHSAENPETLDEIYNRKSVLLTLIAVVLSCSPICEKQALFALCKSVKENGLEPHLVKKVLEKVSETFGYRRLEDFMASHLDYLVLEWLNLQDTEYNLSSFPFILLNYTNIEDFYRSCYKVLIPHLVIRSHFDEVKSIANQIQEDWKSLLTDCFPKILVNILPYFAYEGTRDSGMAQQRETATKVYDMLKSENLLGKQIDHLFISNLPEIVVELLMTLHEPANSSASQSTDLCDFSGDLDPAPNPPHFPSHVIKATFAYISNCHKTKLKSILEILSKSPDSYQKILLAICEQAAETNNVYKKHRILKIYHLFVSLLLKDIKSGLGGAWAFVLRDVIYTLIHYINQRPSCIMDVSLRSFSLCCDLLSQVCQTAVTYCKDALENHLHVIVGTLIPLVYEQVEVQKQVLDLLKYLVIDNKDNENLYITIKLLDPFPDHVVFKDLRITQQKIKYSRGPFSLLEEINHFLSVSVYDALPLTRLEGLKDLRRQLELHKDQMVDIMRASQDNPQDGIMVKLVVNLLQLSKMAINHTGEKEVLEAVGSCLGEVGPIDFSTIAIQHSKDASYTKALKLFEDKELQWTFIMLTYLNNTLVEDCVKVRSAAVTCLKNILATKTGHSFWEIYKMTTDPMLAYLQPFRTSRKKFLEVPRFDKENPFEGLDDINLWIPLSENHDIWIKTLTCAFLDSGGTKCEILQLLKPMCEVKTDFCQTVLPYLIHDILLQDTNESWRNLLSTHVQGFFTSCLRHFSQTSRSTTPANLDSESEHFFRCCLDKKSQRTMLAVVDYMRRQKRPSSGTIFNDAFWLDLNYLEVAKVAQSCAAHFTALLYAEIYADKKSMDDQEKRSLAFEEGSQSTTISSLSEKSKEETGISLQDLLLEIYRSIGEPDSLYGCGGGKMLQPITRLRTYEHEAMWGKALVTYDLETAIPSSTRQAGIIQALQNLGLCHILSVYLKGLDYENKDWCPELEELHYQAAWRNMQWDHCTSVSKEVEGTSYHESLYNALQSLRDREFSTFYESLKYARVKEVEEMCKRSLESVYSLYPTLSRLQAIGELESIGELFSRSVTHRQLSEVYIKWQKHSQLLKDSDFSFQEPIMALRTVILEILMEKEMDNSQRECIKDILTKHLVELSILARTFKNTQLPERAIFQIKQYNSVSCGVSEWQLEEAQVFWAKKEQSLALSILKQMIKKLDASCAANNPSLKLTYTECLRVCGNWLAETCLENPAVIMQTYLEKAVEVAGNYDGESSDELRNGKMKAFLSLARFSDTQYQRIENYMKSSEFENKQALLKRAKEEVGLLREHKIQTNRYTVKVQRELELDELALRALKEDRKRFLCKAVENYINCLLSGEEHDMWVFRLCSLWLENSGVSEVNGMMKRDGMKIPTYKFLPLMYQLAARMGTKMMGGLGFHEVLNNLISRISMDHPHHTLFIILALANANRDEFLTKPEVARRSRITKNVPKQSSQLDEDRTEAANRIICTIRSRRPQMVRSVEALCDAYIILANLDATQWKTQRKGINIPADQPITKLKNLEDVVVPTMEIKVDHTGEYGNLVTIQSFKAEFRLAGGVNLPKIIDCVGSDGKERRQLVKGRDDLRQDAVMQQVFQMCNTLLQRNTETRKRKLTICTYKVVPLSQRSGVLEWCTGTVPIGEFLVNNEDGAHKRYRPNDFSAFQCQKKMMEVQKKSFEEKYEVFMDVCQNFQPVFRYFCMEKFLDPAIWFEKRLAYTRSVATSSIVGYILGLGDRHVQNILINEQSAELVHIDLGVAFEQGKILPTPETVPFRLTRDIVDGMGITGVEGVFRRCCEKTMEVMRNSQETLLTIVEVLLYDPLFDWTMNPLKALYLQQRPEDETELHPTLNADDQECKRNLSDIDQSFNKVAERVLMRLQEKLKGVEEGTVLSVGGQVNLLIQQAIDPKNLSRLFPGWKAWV
Method in brief: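 Full-length enzyme, expressed in a mammalian cell line, pre-incubated 15 min with inhibitor in 25 mM HEPES pH 8.0, 10 mM Mg(CH3COO)2, 1 mM MnCl2, 0,1% BSA, 0,01% Brij 35, 5 mM DTT. Full-length cmyc-p53 (Sf21-expressed) and ATP then added, 30-35 min at 22° C. EDTA stop; p53 S15 phosphorylation read by TR-FRET antibodies.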

[2] = tested on: phosphorylation of CHK2 (phospho-Thr68) in HCT116 cells; assay: Cellular pCHK2 assay: bleomycin-induced phosphorylation of CHK2 (phospho-Thr68), immunofluorescence high-content analysis; format: cell-based, human; conditions: Homo sapiens, HCT-116, 4 h, read-out: IC50 (pCHK2)
Method in brief: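 HCT116 cells in DMEM with 10% FCS, incubated overnight at 37° C, then given compounds (1 nM to 30 μM, 0.5% DMSO) together with 10 μM bleomycin. Phospho-Thr68 CHK2 immunostained and imaged by high-content imager; nuclei with pCHK2 above background counted, cell count from propidium iodide DNA stain.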

PI3K (p120γ) (human) = PI3K (p120γ) (human) (Homo sapiens (Human), UniProt P48736); assay: PI3K (p120γ) (human), non-radioactive assay (HTRF); format: biochemical; conditions: read-out: IC50 (PI3Kgamma)
Method in brief: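 Enzyme was run with 10 μM phosphatidylinositol 4,5-bisphosphate, starting the reaction with MgATP at an unspecified level, for 30 min at room temperature. The stop used EDTA plus biotinylated PIP3, and detection used Eu-anti-GST, GST-GRP1 PH domain and streptavidin-APC. Signal was taken as HTRF = 10000×(Em665nm/Em620nm).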

mTOR (human) = mTOR (human) (Homo sapiens (Human), UniProt P42345); assay: mTOR (human) kinase assay, [γ-33P-ATP] filter assay; format: biochemical
Experimental: Furthermore, the effect, in particular inhibition, of other kinases and thus the selectivity of the compounds according to the invention can be determined with the aid of the following assay:
mTOR (human) was incubated with 50 mM HEPES pH 7.5, 1 mM EGTA, 0.01% Tween 20, 2 mg/ml of the substrate, 3 mM MnCl2 and [γ-^33P-ATP] (specific activity approximately 500 cpm/pmol, concentration as necessary). The reaction was initiated by addition of MgATP solution. After incubation at room temperature for 40 minutes, the reaction was stopped by addition of 3% phosphoric acid. 10 μl of the reaction solution were then transferred dropwise onto a P30 filtermat and washed three times for 5 min in 75 mM phosphoric acid and once in methanol, dried and evaluated by means of liquid scintillation counting.

PI3K p110δ/p85α (human) = PI3K p110δ/p85α (human) (Homo sapiens (Human), UniProt O00329); assay: PI3K p110δ/p85α (human), non-radioactive assay (HTRF); format: biochemical; conditions: read-out: IC50 (PI3Kdelta)
Chain of PI3K p110δ/p85α (human) (O00329 whole entry): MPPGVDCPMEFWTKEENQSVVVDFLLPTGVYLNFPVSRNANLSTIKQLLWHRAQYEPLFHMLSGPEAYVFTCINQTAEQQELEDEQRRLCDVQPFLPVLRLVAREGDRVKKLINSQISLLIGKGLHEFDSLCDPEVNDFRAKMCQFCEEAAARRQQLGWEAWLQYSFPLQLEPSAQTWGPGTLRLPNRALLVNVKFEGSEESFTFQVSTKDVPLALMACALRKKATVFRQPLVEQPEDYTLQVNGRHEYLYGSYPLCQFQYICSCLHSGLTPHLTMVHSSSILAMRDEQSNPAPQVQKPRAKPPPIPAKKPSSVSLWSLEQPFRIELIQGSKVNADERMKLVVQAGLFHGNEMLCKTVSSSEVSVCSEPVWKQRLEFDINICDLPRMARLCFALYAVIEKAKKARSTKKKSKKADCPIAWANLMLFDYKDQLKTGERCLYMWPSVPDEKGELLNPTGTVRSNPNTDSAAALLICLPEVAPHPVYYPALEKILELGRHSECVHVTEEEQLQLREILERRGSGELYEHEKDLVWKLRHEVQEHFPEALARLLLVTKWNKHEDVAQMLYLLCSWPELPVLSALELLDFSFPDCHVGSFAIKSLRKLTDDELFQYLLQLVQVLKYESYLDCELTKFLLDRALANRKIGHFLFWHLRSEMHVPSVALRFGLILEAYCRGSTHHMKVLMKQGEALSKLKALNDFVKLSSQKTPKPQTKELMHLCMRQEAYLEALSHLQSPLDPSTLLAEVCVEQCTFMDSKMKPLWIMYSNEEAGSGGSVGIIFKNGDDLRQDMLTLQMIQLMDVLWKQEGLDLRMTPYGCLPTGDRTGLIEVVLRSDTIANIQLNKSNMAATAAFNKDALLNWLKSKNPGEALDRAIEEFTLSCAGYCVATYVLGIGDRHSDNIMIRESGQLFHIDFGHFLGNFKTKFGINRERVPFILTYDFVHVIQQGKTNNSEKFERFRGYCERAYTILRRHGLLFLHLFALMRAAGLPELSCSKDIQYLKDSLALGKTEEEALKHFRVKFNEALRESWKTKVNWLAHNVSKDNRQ
Chain of PI3K p110δ/p85α (human) (P27986 whole entry partner): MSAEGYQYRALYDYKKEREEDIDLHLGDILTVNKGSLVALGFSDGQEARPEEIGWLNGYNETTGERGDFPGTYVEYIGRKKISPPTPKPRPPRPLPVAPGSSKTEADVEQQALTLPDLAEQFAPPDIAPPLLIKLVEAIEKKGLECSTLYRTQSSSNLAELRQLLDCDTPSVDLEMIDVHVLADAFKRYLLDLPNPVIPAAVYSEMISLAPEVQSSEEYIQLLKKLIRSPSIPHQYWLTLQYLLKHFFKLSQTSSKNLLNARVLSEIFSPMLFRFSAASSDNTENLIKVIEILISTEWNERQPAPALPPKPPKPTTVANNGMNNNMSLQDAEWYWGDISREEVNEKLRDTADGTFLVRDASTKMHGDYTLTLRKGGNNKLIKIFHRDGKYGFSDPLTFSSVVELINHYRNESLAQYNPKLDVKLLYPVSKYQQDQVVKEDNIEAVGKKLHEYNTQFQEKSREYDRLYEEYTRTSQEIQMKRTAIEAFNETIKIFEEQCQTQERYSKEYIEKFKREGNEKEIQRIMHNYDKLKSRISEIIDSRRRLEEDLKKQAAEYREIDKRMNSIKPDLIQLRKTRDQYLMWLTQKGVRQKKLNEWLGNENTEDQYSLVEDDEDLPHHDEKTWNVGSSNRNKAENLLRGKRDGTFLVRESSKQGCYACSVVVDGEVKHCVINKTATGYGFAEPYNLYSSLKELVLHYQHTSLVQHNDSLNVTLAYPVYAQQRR

SMILES | IC50 (PI3K p110β/p85α (human)) [µM] | IC50 (PI3K p110α/p85α (human)) [µM] | IC50 [1] [µM] | IC50 ([1]; 10 μM ATP, substrate p53) [µM] | IC50 [2] [µM] | IC50 (PI3K (p120γ) (human)) [µM] | IC50 (mTOR (human)) [µM] | IC50 (PI3K p110δ/p85α (human)) [µM]
CCn1cc(-c2cc3c(cc2OC)ncc2c3n(-c3cn(C)nc3C)c(=O)n2C)cn1 [Compound Example 21, 1-(1,3-Dimethyl-1H-pyrazol-4-yl)-8-(1-ethyl-1H-pyrazol-4-yl)-7-methoxy-3-methyl-1,3-dihydroimidazo[4,5-c] quinolin-2-one] | > 30 | > 20 | < 0.001 | < 0.001 | < 0.2 | > 300 | > 5 | > 30
CCn1cc(-c2cc3c(cc2OC)ncc2c3n(-c3ccncc3)c(=O)n2C)cn1 [compound 62, 8-(1-Ethyl-1H-pyrazol-4-yl)-7-methoxy-3-methyl-1-pyridin-4-yl-1,3-dihydro-imidazo[4,5-c]quinolin-2-one] | > 30 | > 30 | < 0.01 | < 0.01 | 1 to 2 | > 30 | > 30 | > 30
COc1cc2ncc3c(c2cc1-c1cnn(C)c1)n(-c1nccs1)c(=O)n3C [Compound Example 47, 7-Methoxy-3-methyl-8-(1-methyl-1H-pyrazol-4-yl)-1-thiazol-2-yl-1,3-dihydro-imidazo[4,5-c]quinolin-2-one] | > 30 | > 30 | < 0.01 | < 0.01 | 0.2 to 1 | > 30 | > 30 | > 30
COc1cc2ncc3c(c2cc1-c1cn[nH]c1)n(-c1ncccc1F)c(=O)n3C [Compound Example 7, 1-(3-Fluoropyridin-2-yl)-7-methoxy-3-methyl-8-(1H-pyrazol-4-yl)-1,3-dihydro-imidazo[4,5-c]quinolin-2-one] | > 30 | > 30 | < 0.001 | < 0.001 | < 0.2 | > 30 | > 30 | > 30
COc1cc2ncc3c(c2cc1-c1cnn(C)c1)n(-c1ccnn1C)c(=O)n3C [Compound Example 49, 7-Methoxy-3-methyl-1-(2-methyl-2H-pyrazol-3-yl)-8-(1-methyl-1H-pyrazol-4-yl)-1,3-dihydroimidazo[4,5-c]-quinolin-2-one] | > 30 | > 30 | < 0.01 | < 0.01 | 0.2 to 1 | > 30 | > 30 | > 30
COc1cc2ncc3c(c2cc1-c1cnn(C)c1)n(-c1ncccc1F)c(=O)n3C [Compound Example 14, 1-(3-Fluoropyridin-2-yl)-7-methoxy-3-methyl-8-(1-methyl-1H-pyrazol-4-yl)-1,3-dihydroimidazo[4,5-c]-quinolin-2-one] | > 30 | > 30 | < 0.001 | < 0.001 | < 0.2 | > 30 | > 30 | > 30
COc1cc2ncc3c(c2cc1-c1cnn(C)c1)n(-c1c[nH]nc1C)c(=O)n3C [Compound Example 43, 7-Methoxy-3-methyl-1-(3-methyl-1H-pyrazol-4-yl)-8-(1-methyl-1H-pyrazol-4-yl)-1,3-dihydroimidazo[4,5-c]-quinolin-2-one] | > 30 | > 30 | < 0.001 | < 0.001 | 0.2 to 1 | > 30 | > 30 | > 30
COc1cc2ncc3c(c2cc1-c1cnn(C)c1)n(-c1c(F)cncc1C#N)c(=O)n3C [Compound Example 44, 5-Fluoro-4-[7-methoxy-3-methyl-8-(1-methyl-1H-pyrazol-4-yl)-2-oxo-2,3-dihydroimidazo[4,5-c]-quinolin-1-yl]nicotinonitrile] | > 30 | > 30 | < 0.01 | < 0.01 | 0.2 to 1 | > 30 | > 30 | > 30
COc1cc2ncc3c(c2cc1-c1cn(C)nc1C)n(-c1cn(C)nc1C)c(=O)n3C [Compound Example 10, 1,8-Bis-(1,3-dimethyl-1H-pyrazol-4-yl)-7-methoxy-3-methyl-1,3-dihydroimidazo-[4,5-c]quinolin-2-one] | > 30 | > 30 | < 0.001 | < 0.001 | < 0.2 | > 30 | > 30 | > 30
COc1cc2ncc3c(c2cc1-c1cnn(C)c1)n(-c1c(C)cncc1F)c(=O)n3C [Compound Example 18, 1-(3-Fluoro-5-methylpyridin-4-yl)-7-methoxy-3-methyl-8-(1-methyl-1H-pyrazol-4-yl)-1,3-dihydroimidazo[4,5-c] quinolin-2-one] | > 30 | > 10 | < 0.001 | < 0.01 | < 0.2 | > 5 | > 5 | > 30
CCc1cncc(F)c1-n1c(=O)n(C)c2cnc3cc(OC)c(-c4cnn(CC)c4)cc3c21 [Compound Example 25, 1-(3-Ethyl-5-fluoropyridin-4-yl)-8-(1-ethyl-1H-pyrazol-4-yl)-7-methoxy-3-methyl-1,3-dihydroimidazo[4,5-c] quinolin-2-one] | > 30 | > 30 | < 0.001 | < 0.001 | < 0.2 | > 30 | > 30 | > 30
COc1cc2ncc3c(c2cc1-c1cc(C)[nH]n1)n(-c1ncccc1F)c(=O)n3C [Compound Example 29, 1-(3-Fluoropyridin-2-yl)-7-methoxy-3-methyl-8-(5-methyl-1H-pyrazol-3-yl)-1,3-dihydroimidazo[4,5-c] quinolin-2-one] | > 30 | > 30 | < 0.01 | < 0.01 | < 0.2 | > 30 | > 30 | > 30
CCn1cc(-c2cc3c(cc2OC)ncc2c3n(-c3ccncc3F)c(=O)n2C)cn1 [Compound Example 33, 8-(1-Ethyl-1H-pyrazol-4-yl)-1-(3-fluoropyridin-4-yl)-7-methoxy-3-methyl-1,3-dihydroimidazo[4,5-c] quinolin-2-one] | > 30 | > 30 | < 0.001 | < 0.001 | < 0.2 | > 30 | > 30 | > 30
COc1cc2ncc3c(c2cc1-c1cn[nH]c1)n(-c1cnn(C)c1)c(=O)n3C [Compound Example 17, 7-Methoxy-3-methyl-1-(1-methyl-1H-pyrazol-4-yl)-8-(1H-pyrazol-4-yl)-1,3-dihydroimidazo[4,5-c] quinolin-2-one] | > 30 | > 30 | < 0.01 | < 0.001 | < 0.2 | > 30 | > 10 | > 30
COc1cc2ncc3c(c2cc1-c1cnn(C)c1)n(-c1ncc(F)cc1F)c(=O)n3C [Compound Example 1, 1-(3,5-Difluoropyridin-2-yl)-7-methoxy-3-methyl-8-(l-methyl-1H-pyrazol-4-yl)-1,3-dihydroimidazo[4,5-c] quinolin-2-one] | > 30 | > 30 | < 0.01 | < 0.01 | < 0.2 | > 30 | > 30 | > 30
